Results from ChEMBL document CHEMBL5149962, “Targeting KRAS mutant cancers by preventing signaling transduction in the MAPK pathway” (Eur J Med Chem, 2021).
Where a SMILES comes first, the peptide text is derived from it. Bridges are numbered along the chain shown (N, C = ends). [ ]: non-standard residue; d: D form. S5 = C=CCCC[C@](C)(N)C(=O)O

Legend:
GTPase KRas [1] = target: T1, GTPase KRas (Homo sapiens, UniProt P01116, G12V); assay: Binding affinity to GDP-bound KRAS G12V RAS mutant (unknown origin)
GTPase HRas [2] = target: T2, GTPase HRas (Homo sapiens, UniProt P01112); assay: Inhibition of human p21 h-RAS assessed as reduction in C-Cdc25 stimulated nucleotide exchange by luminescence spectrometer based analysis
GTPase KRas [3] = target: GTPase KRas (Homo sapiens, UniProt P01116); assay: Binding affinity to KRAS (unknown origin) assessed as dissociation constant
[4] = Binding affinity to human FPTase assessed as inhibition constant
[5] = Lipophilicity, logP of the compound; assay type: physicochemical; settings: octanol/water
HCT-116 [6] = assay: Antiproliferative activity against human HCT-116 cells harboring KRAS G13D mutant assessed as cell growth inhibition measured after 96 hrs by MTT assay; assay type: functional
[7] = Inhibition of human N-terminal His-tagged recombinant wild-type KRAS (1 to 156 residues) expressed in Escherichia coli BL21 (DE3)/SAH-SOS1A by fluorescence based polarization assay
[8] = target: Protein farnesyltransferase subunit beta (Homo sapiens, UniProt P49356); assay: Displacement of M [3H] farnesyl diphosphate from human PFTase expressed in Escherichia coli
[9] = Inhibition of GDP-tagged human RAS (1 to 166 residue) incubated for 20 mins by using Centricon-10 micro concentrators analysis
GTPase KRas [10] = target: GTPase KRas (Homo sapiens, UniProt P01116, G12C); assay: Inhibition of KRAS G12C mutant (unknown origin)
[11] = Inhibition of HRAS […] mutant (unknown origin) expressed in mouse NIH3T3 cells assessed as inhibition of post-translational modification processing; assay type: cell-based, Homo sapiens
GTPase KRas [12] = target: T1, GTPase KRas; assay: Inhibition of KRAS G12V mutant (unknown origin) expressed in mouse NIH3T3 cells assessed as inhibition of post-translational modification processing; assay type: cell-based
HT-1080 = assay: Antitumor activity against human HT-1080 cells xenografted in BALB/c nude mouse assessed as reduction in tumor size at 100 mg/kg measured twice a week for 21 days relative to control; assay type: functional; parameters: scale not given: the % may be the effect or the level left; settings: time 21 day
HCT-116 [13] = assay: Antitumor activity against human HCT-116 cells xenografted in BALB/c nude mouse assessed as reduction in tumor size at 100 mg/kg measured twice a week for 21 days relative to control; assay type: functional; parameters: scale not given: the % may be the effect or the level left; settings: time 21 day
NCI-H929 = assay: Induction of apoptosis in human NCI-H929 cells harboring NRAS mutant assessed as reduction in cell viability measured after 48 hrs by Annexin V-FITC staining based flow cytometry analysis; assay type: functional
[14] = Induction of apoptosis in human U266B cells harboring wild type RAS mutant assessed as reduction in cell viability measured after 48 hrs by Annexin V-FITC staining based flow cytometry analysis; assay type: functional
RPMI-8226 = assay: Induction of apoptosis in human RPMI-8226 cells harboring KRAS mutant assessed as reduction in cell viability measured after 48 hrs by Annexin V-FITC staining based flow cytometry analysis; assay type: functional; settings: RPMI-8226, 48 h
MCF-10A = assay: Antiproliferative activity against human MCF-10A cells harboring HRAS mutant incubated for 48 hrs by MTT assay; assay type: functional, cell-based
[15] = Antiproliferative activity against human Hs578Bst cells harboring HRAS mutant incubated for 48 hrs by MTT assay; assay type: functional, cell-based
MDA-MB-231 = assay: Antiproliferative activity against human MDA-MB-231 cells harboring HRAS mutant incubated for 48 hrs by MTT assay; assay type: functional, cell-based; settings: MDA-MB-231, 48 h
SW480 = assay: Antiproliferative activity against human SW480 cells assessed as cell growth inhibition by CCK-8 assay relative to control; assay type: functional
[16] = Binding affinity to recombinant human KRAS (1 to 169 residues) expressed in Escherichia coli - recombinant human SOS1 (560 to 1049 residues) expressed in Escherichia coli assessed as dissociation constant
HT-29 [17] = assay: Cytotoxicity against human HT-29 cells assessed as cell growth inhibition after 72 hrs by MTT assay; assay type: functional, cell-based; settings: HT-29, 72 h
GTPase NRas = GTPase NRas (Homo sapiens, UniProt P01111); assay: Binding affinity to NRAS (unknown origin) assessed as inhibition constant
GTPase HRas [18] = target: T2, GTPase HRas; assay: Binding affinity to HRAS (unknown origin) assessed as inhibition constant
[19] = Antiproliferative activity against human cancer cell lines harboring KRAS mutation assessed as reduction in cell viability; assay type: functional, cell-based
[20] = Antiproliferative activity against human cancer cell lines harboring wild type RAS mutation assessed as reduction in cell viability; assay type: functional, cell-based
A549 [21] = assay: Cytotoxicity against human A549 cells assessed as cell growth inhibition after 72 hrs by MTT assay; assay type: functional, cell-based; settings: A549, 72 h
A549 [22] = assay: Cytotoxicity against human A549 cells assessed as cell growth inhibition after 72 hrs in presence of doxorubicin by MTT assay; assay type: functional, cell-based; settings: A549, 72 h
HT-29 [23] = assay: Cytotoxicity against human HT-29 cells assessed as cell growth inhibition after 72 hrs in presence of doxorubicin by MTT assay; assay type: functional, cell-based; settings: HT-29, 72 h
[24] = AUC in cynomolgus monkey; assay type: ADME, Macaca fascicularis; settings: in vivo
[25] = Cmax in cynomolgus monkey; assay type: ADME, Macaca fascicularis; settings: in vivo
[26] = Inhibition of human FPTase using K-RasB peptide as a substrate assessed as inhibition of substrate farnesylation
[27] = Competitive inhibition of human FPTase using K-RasB peptide as a substrate assessed as inhibition constant by Scintillation proximity assay
HT1197 = assay: Antiproliferative activity against human HT1197 cells harboring HRAS 61 mutation assessed as inhibition of cell growth incubated for 4 to 7 days; assay type: functional, cell-based
SU.86.86 = assay: Antiproliferative activity against human SU-86-86 cells harboring KRAS 12 mutation assessed as inhibition of cell growth incubated for 4 to 7 days; assay type: functional, cell-based
Capan-2 = assay: Antiproliferative activity against human Capan-2 cells harboring KRAS 12 mutation assessed as inhibition of cell growth incubated for 4 to 7 days; assay type: functional, cell-based
NCI-H441 = assay: Antiproliferative activity against human NCI-H441 cells harboring KRAS 12 mutation assessed as inhibition of cell growth incubated for 4 to 7 days; assay type: functional, cell-based

T1 sequence (P01116 whole entry G12V): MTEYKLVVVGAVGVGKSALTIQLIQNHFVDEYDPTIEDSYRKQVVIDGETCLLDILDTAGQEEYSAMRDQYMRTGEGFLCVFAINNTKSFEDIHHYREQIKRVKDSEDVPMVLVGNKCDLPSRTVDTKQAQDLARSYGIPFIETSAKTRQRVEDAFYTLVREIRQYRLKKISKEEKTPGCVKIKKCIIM
T2 sequence (P01112 whole entry): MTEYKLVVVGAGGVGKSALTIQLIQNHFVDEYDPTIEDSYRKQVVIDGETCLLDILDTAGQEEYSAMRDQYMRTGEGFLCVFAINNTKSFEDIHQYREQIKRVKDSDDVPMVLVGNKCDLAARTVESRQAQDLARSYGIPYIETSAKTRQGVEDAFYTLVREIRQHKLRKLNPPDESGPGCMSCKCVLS
Chain of GTPase KRas (Homo sapiens, UniProt P01116) (P01116 whole entry): as the sequence (P01116 whole entry G12V) above, with V12G counted along it
Chain of GTPase NRas (P01111 whole entry): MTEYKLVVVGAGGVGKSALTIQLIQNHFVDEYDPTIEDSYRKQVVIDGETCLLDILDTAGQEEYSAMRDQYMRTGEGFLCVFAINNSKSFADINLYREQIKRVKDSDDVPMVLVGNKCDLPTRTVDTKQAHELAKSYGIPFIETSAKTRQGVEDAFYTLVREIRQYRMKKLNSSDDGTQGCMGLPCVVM
Chain of Protein farnesyltransferase subunit beta (P49356 whole entry): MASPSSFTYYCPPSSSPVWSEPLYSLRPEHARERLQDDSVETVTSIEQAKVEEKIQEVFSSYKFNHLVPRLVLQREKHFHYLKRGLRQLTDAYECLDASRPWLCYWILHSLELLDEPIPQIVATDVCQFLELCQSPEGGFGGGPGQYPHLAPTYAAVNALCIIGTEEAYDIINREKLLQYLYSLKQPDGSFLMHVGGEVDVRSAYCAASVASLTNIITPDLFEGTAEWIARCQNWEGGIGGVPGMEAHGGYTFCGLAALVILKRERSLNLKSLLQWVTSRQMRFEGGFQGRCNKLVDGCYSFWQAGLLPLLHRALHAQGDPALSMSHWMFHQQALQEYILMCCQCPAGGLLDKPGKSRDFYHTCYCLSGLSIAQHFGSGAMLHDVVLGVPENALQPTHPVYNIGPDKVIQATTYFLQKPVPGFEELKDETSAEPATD
Chain of GTPase KRas (Homo sapiens, UniProt P01116, G12C) (P01116 whole entry G12C): as the sequence (P01116 whole entry G12V) above, with V12C counted along it

O=S(=O)(c1ccc(NO)cc1)N(CCOc1ccc2ccccc2c1)[C@@H]1O[C@H](CO)[C@@H](O)[C@H](O)[C@H]1O
IC50 (GTPase KRas [1]): 0.7 µM

O=S(=O)(NCCOc1ccc2ccccc2c1)c1ccc(NO)cc1
IC50 (GTPase KRas [1]): 0.5 µM
IC50 (GTPase HRas [2]): 56 µM

Cc1[nH]c2cc(Cl)cc(Cl)c2c1CCN
Kd (GTPase KRas [3]): 1100 µM

CC(C)=CCC/C(C)=C/CC/C(C)=C/C(O)P(=O)(O)O (stereo not given)
Ki [4]: 0.0052 µM

C=C1CC[C@@H]2[C@]3(C)COC(c4cccc(Br)c4)O[C@@H]3CC[C@@]2(C)[C@@H]1C/C=C1/C(=O)OC[C@H]1O (stereo not given in full)
logP [5]: 2.6

C=C1CC[C@@H]2[C@]3(C)COC(c4ccc(F)c(Br)c4)O[C@@H]3CC[C@@]2(C)[C@@H]1C/C=C1/C(=O)OC[C@H]1O (stereo not given in full)
logP [5]: 2.6
GI50 (HCT-116 [6]): 4 µM

CC[C@H](C)[C@H](NC(=O)CNC(=O)[C@H](Cc1ccccc1)NC(=O)[C@@H](N)Cc1ccccc1)C(=O)N[C@@H](Cc1ccc(O)cc1)C(=O)N[C@@H](CC(C)C)C(=O)N[C@H](C(=O)N[C@@H](CC(N)=O)C(=O)N[C@@]1(C)CCC/C=C\CCC[C@@](C)(C(=O)N[C@@H](CCC(=O)O)C(=O)NCC(=O)N[C@@H](CC(N)=O)C(=O)O)NC(=O)[C@H]([C@@H](C)O)NC(=O)[C@H](CCCCN)NC(=O)[C@H](CC(C)C)NC1=O)[C@@H](C)O
EC50 [7]: 0.1 µM

CC[C@@H](C)[C@@H](CO[C@@H](Cc1ccccc1)C(=O)CC(CCS(C)(=O)=O)C(=O)O)NC[C@@H](N)CS (stereo not given in full)
IC50 [8]: 0.0018 µM

O=S(=O)(c1ccc(NO)cc1)N1CCC(=C2c3cc(Cl)ccc3CCc3cccnc32)CC1
IC50 [9]: 0.9 µM

Nc1nc2c(ncn2CCN(CCOc2ccc3ccccc3c2)S(=O)(=O)c2ccc(NO)cc2)c(=O)[nH]1
IC50 (GTPase KRas [1]): 0.5 µM

C=CC(=O)N1CCN(c2nc(NCCC(=O)N(C)C)nc3c(F)c(-c4cc(O)cc5ccccc45)c(Cl)cc23)CC1
IC50 (GTPase KRas [10]): 0.726 µM

C=C1CC[C@@H]2[C@]3(C)COC(c4ccccc4Br)O[C@@H]3CC[C@@]2(C)[C@@H]1C/C=C1/C(=O)OC[C@H]1O (stereo not given in full)
logP [5]: 2.6
GI50 (HCT-116 [6]): 3.1 µM

CSCC[C@H](CC(=O)[C@H](/C=C\[C@@H](/C=C/[C@@H](N)CS)C(C)C)Cc1ccccc1)C(=O)O
IC50 [11]: 0.5 µM
IC50 (GTPase KRas [12]): 25 µM

COC(=O)[C@H](CCSC)CC(=O)[C@H](/C=C\[C@@H](/C=C/[C@@H](N)CS)C(C)C)Cc1ccccc1
Activity (HT-1080): 40%
Activity (HCT-116 [13]): 20%

COC(=O)[C@H](CCSC)NC(=O)c1ccc(NC[C@H](N)CS)cc1-c1ccccc1
IC50 (NCI-H929): 12.7 µM
IC50 [14]: 25.4 µM
IC50 (RPMI-8226): 41.6 µM
IC50 (MCF-10A): 6.83 µM
IC50 [15]: 14.9 µM
IC50 (MDA-MB-231): 29.3 µM

CC[C@H](C)[C@H](NC(=O)CNC(=O)[C@H](Cc1ccccc1)NC(=O)[C@@H](N)Cc1ccccc1)C(=O)N[C@@]1(C)CCC/C=C\CCC[C@@](C)(C(=O)N[C@@H](CC(C)C)C(=O)N[C@@H](CCCCN)C(=O)N[C@H](C(=O)N[C@@H](CCC(=O)O)C(=O)N[C@@H](CCC(=O)O)C(=O)NCC(=O)N[C@@H](CC(N)=O)C(=O)O)[C@@H](C)O)NC(=O)[C@H](CC(N)=O)NC(=O)[C@H]([C@@H](C)O)NC(=O)[C@H](CC(C)C)NC1=O
EC50 [7]: 0.1 µM

[O-][S+](NC[C@@H]1CC2O[C@H](OCc3ccccc3)[C@@H](OCc3ccccc3)C2O1)c1ccc(NO)cc1 (stereo not given in full)
IC50 (GTPase HRas [2]): 35.5 µM

CC[C@H](C)[C@H](NC(=O)[C@]1(C)CCC/C=C\CCC[C@](C)(NC(=O)CNC(=O)[C@H](Cc2ccccc2)NC(=O)[C@@H](N)Cc2ccccc2)C(=O)N[C@@H](Cc2ccc(O)cc2)C(=O)N[C@@H](CC(C)C)C(=O)N[C@@H]([C@@H](C)O)C(=O)N1)C(=O)N[C@@H](CC(C)C)C(=O)N[C@@H](CCCCN)C(=O)N[C@H](C(=O)N[C@@H](CCC(=O)O)C(=O)N[C@@H](CCC(=O)O)C(=O)NCC(=O)N[C@@H](CC(N)=O)C(=O)O)[C@@H](C)O
EC50 [7]: 0.1 µM

Cc1ccc(NC(=S)NNc2c([N+](=O)[O-])cc(C(F)(F)F)cc2[N+](=O)[O-])cc1Cl
inhibition (INH) (SW480): 66.3%

CC[C@H](C)[C@@H]1NC(=O)CNC(=O)[C@@](C)(NC(=O)[C@@H](N)Cc2ccccc2)CCC/C=C\CCC[C@@](C)(C(=O)N[C@H](C(=O)N[C@@H](C)C(=O)N[C@H](C(=O)N[C@@H](CC(C)C)C(=O)N[C@@H](CCCCN)C(=O)N[C@H](C(=O)N[C@@H](CCC(=O)O)C(=O)N[C@@H](CCC(=O)O)C(=O)NCC(=O)N[C@@H](CC(N)=O)C(=O)O)[C@@H](C)O)[C@@H](C)CC)[C@@H](C)O)NC(=O)[C@H](Cc2ccc(O)cc2)NC1=O (H-F[S5]GIY[S5]TAILKTEEGN-OH; staple (Z) 2-6)
EC50 [7]: 0.1 µM

C=C1CC[C@@H]2[C@](C)(CO)[C@H](O)CC[C@@]2(C)[C@@H]1C/C=C1/C(=O)OC[C@H]1O [ANDROGRAPHOLIDE]
GI50 (HCT-116 [6]): 4.5 µM

CNCc1ccccc1-c1csc([C@@H](C)Nc2nc(C)nc3cc(OC)c(OC)cc23)c1 [BAY-293]
Kd [16]: 0.036 µM

c1ccc2[nH]cnc2c1 [BENZIMIDAZOLE]
Kd (GTPase KRas [3]): 1500 µM

N#Cc1ccc(Cn2cncc2CN2CCN(c3cccc(Cl)c3)C(=O)C2)cc1 [L-778123 FREE BASE]
IC50 (HT-29 [17]): 126 µM
Ki (GTPase NRas): 0.0003 µM
Ki (GTPase HRas [18]): 0.0016 µM
IC50 [19]: 2.28 µM
IC50 [20]: 0.07 µM
IC50 (A549 [21]): 101 µM
IC50 (A549 [22]): 1.72 µM
IC50 (HT-29 [23]): 1.52 µM

NC(=O)N1CCC(CC(=O)N2CCC([C@H]3c4ncc(Br)cc4CCc4cc(Cl)cc(Br)c43)CC2)CC1 [LONAFARNIB]
AUC [24]: 14700 ng·h/mL
Cmax [25]: 1900 nM

CNC(=O)c1cc(Oc2ccc(NC(=O)Nc3ccc(Cl)c(C(F)(F)F)c3)cc2)ccn1 [SORAFENIB]
inhibition (INH) (SW480): 83.8%

Cn1cncc1[C@@](N)(c1ccc(Cl)cc1)c1ccc2c(c1)c(-c1cccc(Cl)c1)cc(=O)n2C [TIPIFARNIB]
IC50 [26]: 0.0079 µM
Ki [27]: 0.0005 µM
IC50 (HT1197): 0.0017 µM
IC50 (SU.86.86): 0.0095 µM
IC50 (Capan-2): 0.016 µM
IC50 (NCI-H441): 0.036 µM
